What all share (assay type): cell-based
One test has as its system K562 cells. Description: Cell growth inhibitory activity assay (CellTiter-Glo), K562 cells. Particulars: Homo sapiens, 72 h, CTG cell viability. Summed up: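 K562 cells in logarithmic growth were counted, diluted and plated in 96-well plates, with medium-only blanks and a separate T0 plate read by CTG the following day. After overnight incubation, graded compound concentrations were added for 72 h, with 0.5% DMSO wells as growth controls. Luminescence was read on a Biotek cytation3.0, and IC50 came from nonlinear fitting in GraphPad Prism 7.0.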
On the technique in general: In ATP-based viability assays light output follows the ATP content of the culture.

For a further test, the target named is T1, Ba/F3 BCR-ABL1 WT (Homo sapiens, UniProt P00519+P11274).
T1 construct: BCR (N-terminal fusion partner of the oncoprotein); expressed in transfected cells; host or cells: Ba/F3 (lentiviral transduction, monoclonal line)
Description: Cell growth inhibitory activity assay (CellTiter-Glo), Ba/F3 BCR-ABL1 WT cells. The settings on record: 72 h, CTG cell viability. Summed up: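 Ba/F3 lines stably transduced by lentivirus with WT or mutant BCR-ABL1, alongside untransduced parental Ba/F3, were seeded and incubated overnight at 37 °C, 5% CO2, then exposed to serially diluted compound for 72 h. Viability was read as ATP by CellTiter-Glo luminescence against a day-of-dosing T0 plate; IC50 from four-parameter nonlinear fit.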

The target of a further test is T2, Ba/F3 BCR-ABL1 T315I (Homo sapiens, UniProt P00519+P11274, T315I).
T2 construct: BCR (N-terminal fusion partner of the oncoprotein); expressed in transfected cells; host or cells: Ba/F3 (lentiviral transduction, monoclonal line)
The test can be described thus: Cell growth inhibitory activity assay (CellTiter-Glo), Ba/F3 BCR-ABL1 T315I cells. The settings on record: 72 h, CTG cell viability. In short, it runs like this:
(§1)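 IC50 values come from nonlinear fitting of % inhibition against log concentration, with viability taken as ATP content by CellTiter-Glo. Parental Ba/F3 or Ba/F3 monoclonal lines expressing lentivirally introduced mutant BCR-ABL1 were dosed for 72 h; controls included 0.5% DMSO wells and a T0 plate.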

In the next test the test system is Ba/F3 parental cells. Description: Cell growth inhibitory activity assay (CellTiter-Glo), Ba/F3 parental cells. The settings on record: Mus musculus, BaF3, 72 h, CTG cell viability, read-out: IC50 Ba/F3 BCR-ABL1 Parental. In short, it runs like this:
as §1

As for `C[C@@H]1COCc2nc3cc(C(=O)Nc4ccc(OC(F)(F)Cl)cc4)cc(-c4cnc5c(c4)-c4nn(-c6ncc7cccnc7n6)cc4C5)c3n21` [T-86, (R)-N-(4-(chlorodifluoromethoxy)phenyl)-4-methyl-6-(2-(pyrido[2,3-d]pyrimidin-2-yl)-2,4-dihydropyrazolo[3',4':3,4]cyclopenta[1,2-b]pyridin-7-yl)-3,4-dihydro-1H-benzo[4,5]imidazo[2,1-c][1,4]oxazine-8-carboxamide], the IC50 in the test on K562 cells was no more than 5 nM; at Ba/F3 BCR-ABL1 WT, no more than 5 nM; against Ba/F3 BCR-ABL1 T315I, no more than 5 nM; with Ba/F3 parental cells, greater than 1000 nM.
For the molecule `C[C@@H]1COCc2nc3cc(C(=O)Nc4ccc(OC(F)(F)Cl)cc4)cc(-c4cnc5c(c4)-c4nn(-c6nccc(-c7cccnc7)n6)cc4C5)c3n21` [T-87, (R)-N-(4-(chlorodifluoromethoxy)phenyl)-4-methyl-6-(2-(4-(pyridin-3-yl)pyrimidin-2-yl)-2,4-dihydropyrazolo[3',4':3,4]cyclopenta[1,2-b]pyridin-7-yl)-3,4-dihydro-1H-benzo[4,5]imidazo[2,1-c][1,4]oxazine-8-carboxamide], the IC50 in the test with K562 cells was no more than 5 nM; at Ba/F3 BCR-ABL1 WT it was no more than 5 nM; at Ba/F3 BCR-ABL1 T315I, no more than 5 nM; in the test on Ba/F3 parental cells, greater than 1000 nM.
As to `C[C@@H]1COCc2nc3cc(C(=O)Nc4ccc(OC(F)(F)Cl)cc4)cc(-c4cnc5c(c4)-c4nn(-c6nccc(N7CCOCC7)n6)cc4C5)c3n21` [T-88, (R)-N-(4-(chlorodifluoromethoxy)phenyl)-4-methyl-6-(2-(4-morpholinopyrimidin-2-yl)-2,4-dihydropyrazolo[3',4':3,4]cyclopenta[1,2-b]pyridin-7-yl)-3,4-dihydro-1H-benzo[4,5]imidazo[2,1-c][1,4]oxazine-8-carboxamide], the IC50 is no more than 5 nM in the test on K562 cells, no more than 5 nM at Ba/F3 BCR-ABL1 WT, no more than 5 nM against Ba/F3 BCR-ABL1 T315I and greater than 1000 nM in the test on Ba/F3 parental cells.
In the case of `C[C@@H]1COCc2nc3cc(C(=O)Nc4ccc(OC(F)(F)Cl)cc4)cc(-c4cnc5c(c4)-c4nn(-c6nccc(-c7ccc(F)cc7)n6)cc4C5)c3n21` [T-89, (R)-N-(4-(chlorodifluoromethoxy)phenyl)-6-(2-(4-(4-fluorophenyl)pyrimidin-2-yl)-2,4-dihydropyrazolo[3',4':3,4]cyclopenta[1,2-b]pyridin-7-yl)-4-methyl-3,4-dihydro-1H-benzo[4,5]imidazo[2,1-c][1,4]oxazine-8-carboxamide], the IC50 in the test with K562 cells is no more than 5 nM; against Ba/F3 BCR-ABL1 WT, no more than 5 nM; against Ba/F3 BCR-ABL1 T315I, no more than 5 nM; with Ba/F3 parental cells it was greater than 1000 nM.
As for `C[C@@H]1COCc2nc3cc(C(=O)Nc4ccc(OC(F)(F)Cl)cc4)cc(-c4cnc5c(c4)-c4nn(-c6nccc(-c7ccn(C)n7)n6)cc4C5)c3n21` [T-90, (R)-N-(4-(chlorodifluoromethoxy)phenyl)-4-methyl-6-(2-(4-(1-methyl-1H-oyrazol-3-yl)pyrimidin-2-yl)-2,4-dihydropyrazolo[3',4':3,4]cyclopenta[1,2-b]pyridin-7-yl)-3,4-dihydro-1H-benzo[4,5]imidazo[2,1-c][1,4]oxazine-8-carboxamide], the IC50 in the test on K562 cells was no more than 5 nM; against Ba/F3 BCR-ABL1 WT it was no more than 5 nM; at Ba/F3 BCR-ABL1 T315I, no more than 5 nM; in the test with Ba/F3 parental cells, greater than 1000 nM.
For `COc1ccc(-c2ccnc(-n3ncc4c3-c3cc(-c5cc(C(=O)Nc6ccc(OC(F)(F)Cl)cc6)cc6nc7n(c56)[C@H](C)COC7)cnc3C4)n2)cc1F` [T-91-A, (R)-N-(4-(chlorodifluoromethoxy)phenyl)-6-(1-(4-(3-fluoro-4-methoxyphenyl)pyrimidin-2-yl)-1,4-dihydropyrazolo[3',4':3,4]cyclopenta[1,2-b]pyridin-7-yl)-4-methyl-3,4-dihydro-1H-benzo[4,5]imidazo[2,1-c][1,4]oxazine-8-carboxamide], the IC50 in the test with K562 cells was no more than 5 nM; against Ba/F3 BCR-ABL1 WT, 5 to 50 nM; at Ba/F3 BCR-ABL1 T315I, 50 to 1000 nM; in the test on Ba/F3 parental cells, greater than 1000 nM.
